Source: US12077503B2, “Substituted cyclic amides and their use as herbicides” (FMC CORPORATION, priority 2015, dated 2024)

What was measured:
Assay type in all cases: in vivo
[1] = test system: Kochia (Kochia scoparia); test: Test A preemergence; conditions: Bassia scoparia, pre-emergence, 240 h, preemergence, 0 to 100 scale where 0 is no effect and 100 is complete control, read-out: Kochia plant response rating
Method in brief: (§1)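 Seeded soil received test chemicals as a preemergence directed spray, and seedlings at one to two leaves, 2–10 cm tall, received them postemergence, in a non-phytotoxic, surfactant-containing solvent mixture. Pots were held in a greenhouse for approximately 10 d, then rated for injury from 0, no effect, to 100, complete control.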

[2] = test system: barnyardgrass (Echinochloa crus-galli); test: Test A preemergence; conditions: Echinochloa crus-galli, pre-emergence, 240 h, preemergence, 0 to 100 scale where 0 is no effect and 100 is complete control, read-out: Barnyardgrass plant response rating
Method in brief: as §1

[3] = test system: giant foxtail (Setaria faberii); test: Test A preemergence; conditions: Setaria faberi, pre-emergence, 240 h, preemergence, 0 to 100 scale where 0 is no effect and 100 is complete control, read-out: Foxtail, Giant plant response rating
Method in brief: as §1

[4] = test system: pigweed (Amaranthus retroflexus); test: Test A preemergence; conditions: Amaranthus retroflexus, pre-emergence, 240 h, preemergence, 0 to 100 scale where 0 is no effect and 100 is complete control, read-out: Pigweed plant response rating
[5] = test system: ragweed (common ragweed, Ambrosia elatior); test: Test A preemergence; conditions: Ambrosia artemisiifolia, pre-emergence, 240 h, preemergence, 0 to 100 scale where 0 is no effect and 100 is complete control, read-out: Ragweed plant response rating
Method in brief: as §1

[6] = test system: ryegrass, Italian (Italian ryegrass, Lolium multiflorum); test: Test A preemergence; conditions: Lolium multiflorum, pre-emergence, 240 h, preemergence, 0 to 100 scale where 0 is no effect and 100 is complete control, read-out: Ryegrass, Italian plant response rating
Method in brief: as §1

[7] = test system: Galium (catchweed bedstraw, Galium aparine); test: Test A postemergence; conditions: Galium, post-emergence, 240 h
Method in brief: as §1

[8] = test system: Kochia (Kochia scoparia); test: Test A postemergence; conditions: Bassia scoparia, post-emergence, 240 h
Method in brief: as §1

[9] = test system: barnyardgrass (Echinochloa crus-galli); test: Test A postemergence; conditions: Echinochloa crus-galli, post-emergence, 240 h
Method in brief: as §1

[10] = test system: blackgrass (Alopecurus myosuroides); test: Test A postemergence; conditions: Alopecurus myosuroides, post-emergence, 240 h
Method in brief: as §1

[11] = test system: corn (Zea mays); test: Test A postemergence; conditions: Zea mays, post-emergence, 240 h
Method in brief: as §1

[12] = test system: giant foxtail (Setaria faberii); test: Test A postemergence; conditions: Setaria faberi, post-emergence, 240 h
Method in brief: as §1

[13] = test system: pigweed (Amaranthus retroflexus); test: Test A postemergence; conditions: Amaranthus retroflexus, post-emergence, 240 h
Method in brief: as §1

[14] = test system: ragweed (common ragweed, Ambrosia elatior); test: Test A postemergence; conditions: Ambrosia artemisiifolia, post-emergence, 240 h
Method in brief: as §1

[15] = test system: wheat (Triticum aestivum); test: Test A postemergence; conditions: Triticum aestivum, post-emergence, 240 h, Postemergence, 500 g ai/ha; visual injury, 0 to 100 scale (0 no effect, 100 complete control), approx. 10 d; read-out: Plant response rating, Wheat
Method in brief: as §1

[16] = 125 g ai/ha, visual injury rating, approximately 10 d

Work on CN1C[C@H](c2ccc(F)c(C#N)c2)[C@@H](C(=O)Nc2cccc(F)c2F)C1=O [Compound 1255] yielded a pest or weed control at 125 g/ha [1, 16] of 60%, a pest or weed control at 500 g/ha ([1]; 500 g ai/ha) of 80% and a pest or weed control at 125 g/ha [2, 16] of 100%. For the same compound, the pest or weed control at 500 g/ha ([2]; 500 g ai/ha) was 100%, the pest or weed control at 125 g/ha [3, 16] was 100% and the pest or weed control at 500 g/ha ([3]; 500 g ai/ha) was 100%. The pest or weed control at 125 g/ha [4, 16] was 60%, the pest or weed control at 500 g/ha ([4]; 500 g ai/ha) was 90% and the pest or weed control at 125 g/ha [5, 16] was 20%. For the same compound, the pest or weed control at 500 g/ha ([5]; 500 g ai/ha) was 70%, the pest or weed control at 125 g/ha [6, 16] was 20% and the pest or weed control at 500 g/ha ([6]; 500 g ai/ha) was 40%. It also gave a pest or weed control at 125 g/ha ([7]; 125 g ai/ha, postemergence, visual injury vs untreated controls after approx. 10 d, 0 = no effect, 100 = complete control, read-out: Galium plant response rating (0 to 100 scale)) of 40%, a pest or weed control at 500 g/ha ([7]; Postemergence, 500 g ai/ha, visual injury, 0 to 100 scale (0 no effect, 100 complete control), approx. 10 d, read-out: Plant response rating, Galium) of 60% and a pest or weed control at 125 g/ha ([8]; 125 g ai/ha, postemergence, visual injury vs untreated controls after approx. 10 d, 0 = no effect, 100 = complete control, read-out: Kochia plant response rating (0 to 100 scale)) of 20%. The pest or weed control at 500 g/ha ([8]; Postemergence, 500 g ai/ha, visual injury, 0 to 100 scale (0 no effect, 100 complete control), approx. 10 d, read-out: Plant response rating, Kochia) was 50%, the pest or weed control at 125 g/ha ([9]; 125 g ai/ha, postemergence, visual injury vs untreated controls after approx. 10 d, 0 = no effect, 100 = complete control, read-out: Barnyardgrass plant response rating (0 to 100 scale)) was 90% and the pest or weed control at 500 g/ha ([9]; Postemergence, 500 g ai/ha, visual injury, 0 to 100 scale (0 no effect, 100 complete control), approx. 10 d, read-out: Plant response rating, Barnyardgrass) was 100%. For the same compound, the pest or weed control at 125 g/ha ([10]; 125 g ai/ha, postemergence, visual injury vs untreated controls after approx. 10 d, 0 = no effect, 100 = complete control, read-out: Blackgrass plant response rating (0 to 100 scale)) was 0%, the pest or weed control at 500 g/ha ([10]; Postemergence, 500 g ai/ha, visual injury, 0 to 100 scale (0 no effect, 100 complete control), approx. 10 d, read-out: Plant response rating, Blackgrass) was 60% and the plant injury at 125 g/ha ([11]; 125 g ai/ha, postemergence, visual injury vs untreated controls after approx. 10 d, 0 = no effect, 100 = complete control, read-out: Corn plant response rating (0 to 100 scale)) was 60%. The Corn plant response rating (crop injury, 0 = no effect, 100 = complete kill) at 500 g/ha ([11]; Postemergence, 500 g ai/ha, visual injury, 0 to 100 scale (0 no effect, 100 complete control), approx. 10 d) was 90%, the pest or weed control at 125 g/ha ([12]; 125 g ai/ha, postemergence, visual injury vs untreated controls after approx. 10 d, 0 = no effect, 100 = complete control, read-out: Foxtail, Giant plant response rating (0 to 100 scale)) was 80% and the pest or weed control at 500 g/ha ([12]; Postemergence, 500 g ai/ha, visual injury, 0 to 100 scale (0 no effect, 100 complete control), approx. 10 d, read-out: Plant response rating, Foxtail, Giant) was 80%. The pest or weed control at 125 g/ha ([13]; 125 g ai/ha, postemergence, visual injury vs untreated controls after approx. 10 d, 0 = no effect, 100 = complete control, read-out: Pigweed plant response rating (0 to 100 scale)) was 0%, the pest or weed control at 500 g/ha ([13]; Postemergence, 500 g ai/ha, visual injury, 0 to 100 scale (0 no effect, 100 complete control), approx. 10 d, read-out: Plant response rating, Pigweed) was 30% and the pest or weed control at 125 g/ha ([14]; 125 g ai/ha, postemergence, visual injury vs untreated controls after approx. 10 d, 0 = no effect, 100 = complete control, read-out: Ragweed plant response rating (0 to 100 scale)) was 0%. The pest or weed control at 500 g/ha ([14]; Postemergence, 500 g ai/ha, visual injury, 0 to 100 scale (0 no effect, 100 complete control), approx. 10 d, read-out: Plant response rating, Ragweed) was 40% and the plant injury at 500 g/ha [15] was 60%.
